# Measurements from ChEMBL document CHEMBL5696442, “Discovery of type II inhibitors of TGFβ-activated kinase 1 (TAK1) and mitogen-activated protein kinase kinase kinase kinase 2 (MAP4K2)” (J Med Chem, 2015).
# Active and inactive are the calls of the source. No cut-off for these calls is given here.
# Tests used:
# [1] = molecular target: Cyclin-dependent kinase 6 (Homo sapiens) (UniProt Q00534); test: Inhibition of CDK6 Lys2 labeling site in human Huh-7 cells at 1 uM by KiNativ Profiling analysis relative to control; assay type: cell-based
# Cyclin-dependent kinase 6 (Homo sapiens), sequence (Q00534 whole entry): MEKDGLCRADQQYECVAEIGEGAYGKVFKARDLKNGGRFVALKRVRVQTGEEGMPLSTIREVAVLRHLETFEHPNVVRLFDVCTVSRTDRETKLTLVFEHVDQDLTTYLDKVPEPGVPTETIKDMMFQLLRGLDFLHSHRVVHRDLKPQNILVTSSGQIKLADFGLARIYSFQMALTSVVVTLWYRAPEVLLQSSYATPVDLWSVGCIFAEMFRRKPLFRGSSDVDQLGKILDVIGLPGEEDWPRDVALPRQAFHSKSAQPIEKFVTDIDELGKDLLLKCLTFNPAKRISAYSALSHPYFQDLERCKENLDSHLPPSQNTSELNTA
# [2] = molecular target: STE20-like serine/threonine-protein kinase (Homo sapiens) (UniProt Q9H2G2); test: Inhibition of SLK Lys1 labeling site in human Huh-7 cell lysate at 1 uM by KiNativ Profiling analysis relative to control; assay type: subcellular
# STE20-like serine/threonine-protein kinase (Homo sapiens), sequence (Q9H2G2 whole entry, looked up): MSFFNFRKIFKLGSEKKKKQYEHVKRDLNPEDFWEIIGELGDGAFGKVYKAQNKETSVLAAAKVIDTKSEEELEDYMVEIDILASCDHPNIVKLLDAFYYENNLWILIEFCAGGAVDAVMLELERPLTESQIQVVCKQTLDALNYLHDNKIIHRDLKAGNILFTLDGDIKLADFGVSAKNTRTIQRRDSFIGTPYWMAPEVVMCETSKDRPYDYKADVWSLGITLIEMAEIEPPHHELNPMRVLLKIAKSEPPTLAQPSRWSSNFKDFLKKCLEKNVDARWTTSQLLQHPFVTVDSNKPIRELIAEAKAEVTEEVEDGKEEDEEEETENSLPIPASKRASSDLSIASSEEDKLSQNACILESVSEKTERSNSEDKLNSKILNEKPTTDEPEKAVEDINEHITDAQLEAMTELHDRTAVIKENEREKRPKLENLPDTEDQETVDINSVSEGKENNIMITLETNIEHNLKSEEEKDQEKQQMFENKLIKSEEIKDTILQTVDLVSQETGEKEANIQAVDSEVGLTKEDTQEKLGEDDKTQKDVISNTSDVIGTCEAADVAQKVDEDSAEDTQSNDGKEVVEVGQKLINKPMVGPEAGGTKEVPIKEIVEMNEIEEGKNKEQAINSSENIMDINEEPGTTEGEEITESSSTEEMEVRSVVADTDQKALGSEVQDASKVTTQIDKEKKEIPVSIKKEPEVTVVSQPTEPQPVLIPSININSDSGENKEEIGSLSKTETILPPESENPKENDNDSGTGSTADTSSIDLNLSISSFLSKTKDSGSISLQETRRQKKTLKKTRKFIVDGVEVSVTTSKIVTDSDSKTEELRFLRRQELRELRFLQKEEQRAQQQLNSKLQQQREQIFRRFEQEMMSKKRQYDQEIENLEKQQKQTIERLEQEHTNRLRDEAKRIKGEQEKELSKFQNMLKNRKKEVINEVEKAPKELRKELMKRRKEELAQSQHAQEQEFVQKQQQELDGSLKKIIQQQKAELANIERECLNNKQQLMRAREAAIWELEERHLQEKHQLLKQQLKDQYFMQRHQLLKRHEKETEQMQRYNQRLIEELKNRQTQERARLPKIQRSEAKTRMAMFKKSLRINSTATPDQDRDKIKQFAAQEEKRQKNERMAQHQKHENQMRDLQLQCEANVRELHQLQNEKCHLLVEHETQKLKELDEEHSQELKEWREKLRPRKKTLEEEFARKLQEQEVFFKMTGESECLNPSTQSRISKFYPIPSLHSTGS
# [3] = molecular target: T1, Serine/threonine-protein kinase Sgk3 (Homo sapiens) (UniProt Q96BR1); test: Inhibition of SGK3 Lys2 labeling site in human Huh-7 cell lysate at 1 uM by KiNativ Profiling analysis relative to control; assay type: subcellular
# T1 sequence (whole entry): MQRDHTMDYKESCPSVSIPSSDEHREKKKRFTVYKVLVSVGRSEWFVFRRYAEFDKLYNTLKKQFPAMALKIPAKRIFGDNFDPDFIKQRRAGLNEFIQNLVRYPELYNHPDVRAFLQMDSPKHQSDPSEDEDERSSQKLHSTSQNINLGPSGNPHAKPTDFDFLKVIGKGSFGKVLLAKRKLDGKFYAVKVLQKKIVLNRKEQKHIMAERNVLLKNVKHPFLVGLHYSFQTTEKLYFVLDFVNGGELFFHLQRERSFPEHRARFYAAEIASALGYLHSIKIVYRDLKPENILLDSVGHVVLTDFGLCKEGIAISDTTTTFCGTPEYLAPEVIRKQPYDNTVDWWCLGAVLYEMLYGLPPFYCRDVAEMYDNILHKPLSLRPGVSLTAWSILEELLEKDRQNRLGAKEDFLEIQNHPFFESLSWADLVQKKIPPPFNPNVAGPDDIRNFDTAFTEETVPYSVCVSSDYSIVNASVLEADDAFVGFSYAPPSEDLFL
# [4] = molecular target: T2, NUAK family SNF1-like kinase 1 (Homo sapiens) (UniProt O60285); test: Inhibition of ARK5 (unknown origin) at 10 uM by Ambit Kinomescan binding assay
# T2 sequence (whole entry): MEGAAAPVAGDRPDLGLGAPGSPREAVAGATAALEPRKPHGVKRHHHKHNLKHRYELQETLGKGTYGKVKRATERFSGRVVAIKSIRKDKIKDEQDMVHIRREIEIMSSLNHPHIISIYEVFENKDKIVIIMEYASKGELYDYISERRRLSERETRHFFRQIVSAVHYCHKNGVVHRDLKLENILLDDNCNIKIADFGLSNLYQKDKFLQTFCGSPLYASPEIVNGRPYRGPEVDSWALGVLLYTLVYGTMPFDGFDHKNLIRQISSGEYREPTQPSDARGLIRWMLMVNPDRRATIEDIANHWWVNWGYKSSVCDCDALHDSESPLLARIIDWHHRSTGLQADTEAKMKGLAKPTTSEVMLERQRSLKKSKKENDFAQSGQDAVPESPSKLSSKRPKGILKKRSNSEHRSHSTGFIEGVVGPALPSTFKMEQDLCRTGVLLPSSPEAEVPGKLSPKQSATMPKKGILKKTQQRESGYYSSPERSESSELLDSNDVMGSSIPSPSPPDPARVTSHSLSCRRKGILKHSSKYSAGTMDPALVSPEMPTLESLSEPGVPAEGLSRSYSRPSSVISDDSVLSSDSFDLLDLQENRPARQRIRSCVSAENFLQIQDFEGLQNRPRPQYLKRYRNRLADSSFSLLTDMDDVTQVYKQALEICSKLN
# [5] = molecular target: T3, Dual specificity mitogen-activated protein kinase kinase 3 (Homo sapiens) (UniProt P46734); test: Inhibition of MEK3 (unknown origin) at 10 uM by Ambit Kinomescan binding assay
# T3 sequence (whole entry): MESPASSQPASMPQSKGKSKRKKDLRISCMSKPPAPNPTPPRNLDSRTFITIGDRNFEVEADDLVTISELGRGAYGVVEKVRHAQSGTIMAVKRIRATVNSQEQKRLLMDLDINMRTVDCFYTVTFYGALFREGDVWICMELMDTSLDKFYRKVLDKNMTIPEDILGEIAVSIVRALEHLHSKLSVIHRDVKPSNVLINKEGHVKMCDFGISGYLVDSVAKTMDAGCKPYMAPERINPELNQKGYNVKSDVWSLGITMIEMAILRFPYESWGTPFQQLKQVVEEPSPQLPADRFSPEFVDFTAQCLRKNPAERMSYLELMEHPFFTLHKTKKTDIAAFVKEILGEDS
# [6] = molecular target: T4, Serine/threonine-protein kinase tousled-like 1 (Homo sapiens) (UniProt Q9UKI8); test: Inhibition of TLK1 (unknown origin) at 1 uM by Ambit Kinomescan binding assay relative to control
# T4 sequence (whole entry): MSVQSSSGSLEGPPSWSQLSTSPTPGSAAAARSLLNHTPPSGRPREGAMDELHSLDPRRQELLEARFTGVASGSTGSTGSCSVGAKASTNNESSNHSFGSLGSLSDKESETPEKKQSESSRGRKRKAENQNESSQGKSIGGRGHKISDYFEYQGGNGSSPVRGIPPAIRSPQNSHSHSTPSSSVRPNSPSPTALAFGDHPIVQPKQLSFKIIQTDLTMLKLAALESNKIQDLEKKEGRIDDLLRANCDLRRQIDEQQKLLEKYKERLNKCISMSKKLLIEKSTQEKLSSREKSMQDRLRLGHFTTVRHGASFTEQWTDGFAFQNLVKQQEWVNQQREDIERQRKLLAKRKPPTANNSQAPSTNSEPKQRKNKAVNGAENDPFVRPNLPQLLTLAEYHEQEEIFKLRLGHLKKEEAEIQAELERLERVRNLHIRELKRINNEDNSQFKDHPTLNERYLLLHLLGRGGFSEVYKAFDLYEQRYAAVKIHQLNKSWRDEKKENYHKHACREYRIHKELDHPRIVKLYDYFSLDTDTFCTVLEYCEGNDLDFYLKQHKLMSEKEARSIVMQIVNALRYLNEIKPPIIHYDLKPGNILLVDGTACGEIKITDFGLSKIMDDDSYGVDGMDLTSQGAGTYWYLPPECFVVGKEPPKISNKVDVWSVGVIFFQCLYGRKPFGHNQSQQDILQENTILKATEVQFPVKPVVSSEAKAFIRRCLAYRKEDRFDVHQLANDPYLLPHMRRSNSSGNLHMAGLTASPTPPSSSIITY
# [7] = molecular target: RAC-gamma serine/threonine-protein kinase (Homo sapiens) (UniProt Q9Y243); test: Inhibition of AKT3 ATP Loop labeling site in human A-375 cells at 5 uM by KiNativ Profiling analysis relative to control; assay type: cell-based
# RAC-gamma serine/threonine-protein kinase (Homo sapiens), sequence (Q9Y243 whole entry): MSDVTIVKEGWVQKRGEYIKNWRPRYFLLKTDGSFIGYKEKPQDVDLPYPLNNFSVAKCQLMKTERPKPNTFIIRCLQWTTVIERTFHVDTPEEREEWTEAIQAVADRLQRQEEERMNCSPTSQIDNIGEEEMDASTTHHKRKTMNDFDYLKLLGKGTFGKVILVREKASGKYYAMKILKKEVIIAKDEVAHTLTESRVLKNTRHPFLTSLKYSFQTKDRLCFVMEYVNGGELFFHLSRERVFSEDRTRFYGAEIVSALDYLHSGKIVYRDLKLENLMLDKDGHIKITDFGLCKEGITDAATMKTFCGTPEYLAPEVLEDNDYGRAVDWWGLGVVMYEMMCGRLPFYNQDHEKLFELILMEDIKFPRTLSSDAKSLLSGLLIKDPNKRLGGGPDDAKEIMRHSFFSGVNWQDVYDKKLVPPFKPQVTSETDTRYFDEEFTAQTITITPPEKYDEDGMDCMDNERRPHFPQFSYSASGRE
smiles,measurement,setting,value
CNc1cc(Oc2cc(C(=O)Nc3cc(N4CCN(C)CC4)cc(C(F)(F)F)c3)ccc2C)ncn1,inhibition,[1],24.4%
same,inhibition,[2],3.9%
same,inhibition,[3],13.3%
CCN1CCN(Cc2ccc(NC(=O)c3ccc(C)c(Oc4ccnc5[nH]ccc45)c3)cc2C(F)(F)F)CC1,inhibition,[4],inactive
same,inhibition,[5],inactive
CCN1CCN(Cc2ccc(NC(=O)c3ccc(C)c(/C=C/c4cnc5[nH]ccc5c4OC)c3)cc2C(F)(F)F)CC1,inhibition,[6],79%
same,inhibition,[7],13.3%
